# Measurements from ChEMBL document CHEMBL1149697, “Identification of dissociated non-steroidal glucocorticoid receptor agonists” (Bioorg Med Chem Lett, 2007).
# Key:
# Progesterone receptor = biological target: T1, Progesterone receptor (Homo sapiens, UniProt P06401); test: Displacement of TAMRA labeled mifepristone at human progesterone receptor in insect cell
# T1 sequence (P06401 whole entry): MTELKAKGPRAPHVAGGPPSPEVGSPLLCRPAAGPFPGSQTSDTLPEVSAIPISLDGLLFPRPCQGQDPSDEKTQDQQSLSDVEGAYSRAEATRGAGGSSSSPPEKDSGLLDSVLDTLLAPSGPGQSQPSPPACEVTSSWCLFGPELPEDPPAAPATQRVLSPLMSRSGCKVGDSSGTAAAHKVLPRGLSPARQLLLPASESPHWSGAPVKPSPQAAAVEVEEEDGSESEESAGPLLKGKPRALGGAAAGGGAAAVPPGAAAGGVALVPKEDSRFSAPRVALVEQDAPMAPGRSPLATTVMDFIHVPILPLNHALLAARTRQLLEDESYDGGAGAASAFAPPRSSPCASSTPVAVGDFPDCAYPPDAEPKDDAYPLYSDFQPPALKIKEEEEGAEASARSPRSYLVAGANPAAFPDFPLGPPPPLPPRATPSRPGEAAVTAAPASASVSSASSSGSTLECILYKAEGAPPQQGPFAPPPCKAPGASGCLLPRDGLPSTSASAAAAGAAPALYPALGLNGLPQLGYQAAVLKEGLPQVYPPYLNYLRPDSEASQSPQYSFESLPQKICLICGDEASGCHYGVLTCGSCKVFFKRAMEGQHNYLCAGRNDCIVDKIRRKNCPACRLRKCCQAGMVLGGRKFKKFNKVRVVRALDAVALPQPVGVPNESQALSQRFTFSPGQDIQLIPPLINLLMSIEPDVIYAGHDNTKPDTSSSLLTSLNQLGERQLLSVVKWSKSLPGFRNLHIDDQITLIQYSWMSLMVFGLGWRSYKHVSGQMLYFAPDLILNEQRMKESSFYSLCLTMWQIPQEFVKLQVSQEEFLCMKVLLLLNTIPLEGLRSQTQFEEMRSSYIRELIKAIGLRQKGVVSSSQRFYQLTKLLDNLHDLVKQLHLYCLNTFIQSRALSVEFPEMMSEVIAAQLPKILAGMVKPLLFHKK
# [1] = biological target: T2, Mineralocorticoid receptor (Homo sapiens, UniProt P08235); test: Displacement of TAMRA labeled dexamethasone at human mineralocorticoid receptor in insect cell
# T2 sequence (P08235 whole entry): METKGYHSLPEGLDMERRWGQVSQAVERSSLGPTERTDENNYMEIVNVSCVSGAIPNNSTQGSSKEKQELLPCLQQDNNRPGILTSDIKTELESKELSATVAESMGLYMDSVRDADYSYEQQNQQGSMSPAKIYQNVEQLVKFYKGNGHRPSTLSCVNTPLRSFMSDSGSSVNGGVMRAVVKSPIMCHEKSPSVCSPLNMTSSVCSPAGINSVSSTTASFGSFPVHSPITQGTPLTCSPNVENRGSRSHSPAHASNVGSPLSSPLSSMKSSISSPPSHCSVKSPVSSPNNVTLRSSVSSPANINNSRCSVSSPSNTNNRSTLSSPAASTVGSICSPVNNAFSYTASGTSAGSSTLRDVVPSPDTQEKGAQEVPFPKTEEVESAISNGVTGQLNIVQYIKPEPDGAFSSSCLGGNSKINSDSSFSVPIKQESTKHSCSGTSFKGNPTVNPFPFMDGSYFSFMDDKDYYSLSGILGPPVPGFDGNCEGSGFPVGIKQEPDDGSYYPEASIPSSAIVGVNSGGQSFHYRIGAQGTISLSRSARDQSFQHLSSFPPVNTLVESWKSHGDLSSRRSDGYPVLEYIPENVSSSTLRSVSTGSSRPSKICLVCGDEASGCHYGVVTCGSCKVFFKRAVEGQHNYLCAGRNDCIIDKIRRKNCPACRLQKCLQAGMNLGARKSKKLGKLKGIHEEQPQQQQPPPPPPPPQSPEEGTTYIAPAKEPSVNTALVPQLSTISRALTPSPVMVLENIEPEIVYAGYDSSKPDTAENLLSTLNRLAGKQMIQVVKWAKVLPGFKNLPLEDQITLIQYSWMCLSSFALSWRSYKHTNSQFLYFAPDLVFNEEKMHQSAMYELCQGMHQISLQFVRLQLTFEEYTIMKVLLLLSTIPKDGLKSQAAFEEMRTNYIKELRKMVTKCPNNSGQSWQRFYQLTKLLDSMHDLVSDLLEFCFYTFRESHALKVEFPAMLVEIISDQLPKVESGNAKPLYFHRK
# Glucocorticoid receptor = biological target: T3, Glucocorticoid receptor (Homo sapiens, UniProt P04150)
# T3 sequence (P04150 whole entry): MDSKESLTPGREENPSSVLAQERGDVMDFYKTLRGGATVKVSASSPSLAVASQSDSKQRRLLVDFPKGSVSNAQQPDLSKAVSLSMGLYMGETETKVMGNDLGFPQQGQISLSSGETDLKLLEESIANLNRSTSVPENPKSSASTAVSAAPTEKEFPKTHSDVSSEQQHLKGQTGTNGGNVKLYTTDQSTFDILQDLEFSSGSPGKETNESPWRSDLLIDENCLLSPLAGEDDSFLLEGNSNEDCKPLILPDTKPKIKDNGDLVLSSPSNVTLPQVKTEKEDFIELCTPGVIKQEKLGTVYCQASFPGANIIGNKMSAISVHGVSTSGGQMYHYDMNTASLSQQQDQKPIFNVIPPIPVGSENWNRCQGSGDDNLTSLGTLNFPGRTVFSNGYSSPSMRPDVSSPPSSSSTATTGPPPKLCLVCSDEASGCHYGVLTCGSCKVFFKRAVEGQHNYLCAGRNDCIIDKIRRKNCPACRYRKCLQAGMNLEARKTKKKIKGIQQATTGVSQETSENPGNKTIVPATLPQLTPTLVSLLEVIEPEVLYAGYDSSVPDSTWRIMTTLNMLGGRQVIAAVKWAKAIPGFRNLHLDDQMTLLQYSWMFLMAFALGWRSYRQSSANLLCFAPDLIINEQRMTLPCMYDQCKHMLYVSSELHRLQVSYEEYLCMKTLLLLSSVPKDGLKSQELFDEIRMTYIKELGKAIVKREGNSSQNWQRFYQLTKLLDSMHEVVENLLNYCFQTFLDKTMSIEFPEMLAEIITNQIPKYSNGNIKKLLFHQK
# HFF [2] = test: Antiinflammatory activity assessed as inhibition of IL6 production in HFF cells by transrepression assay relative to dexamethasone; type: functional, Homo sapiens
# HFF [3] = test: Antiinflammatory activity assessed as upregulation of aromatase in HFF cells by transactivation assay relative to dexamethasone; type: functional, Homo sapiens; parameters: concentration or dose not given beside the values
# HFF [4] = test: Antiinflammatory activity assessed as inhibition of IL1 stimulated IL6 production in HFF cells by transrepression assay; type: functional, cell-based; conditions: Homo sapiens
# HFF [5] = test: Antiinflammatory activity assessed as upregulation of aromatase in HFF cells by transactivation assay; type: functional, cell-based; conditions: Homo sapiens
IC50 (Progesterone receptor),IC50 [1],IC50 (Glucocorticoid receptor),Compound,Efficacy (HFF [2]),Activity (HFF [3]),EC50 (HFF [4]),EC50 (HFF [5])
> 2000 nM,1350 nM,370 nM,COc1ccc(F)cc1C(C)(C)CC(O)(Cc1ccccc1F)C(F)(F)F (stereo not given),–,–,–,–
> 1600 nM,1600 nM,> 1600 nM,COc1ccc(F)cc1C(C)(C)CC(O)(c1ccccc1)C(F)(F)F (stereo not given),–,–,–,–
> 2000 nM,1400 nM,120 nM,COc1ccc(F)cc1C(C)(C)CC(O)(Cc1cccc2ccccc12)C(F)(F)F (stereo not given),–,–,–,–
> 1130 nM,> 1130 nM,855 nM,COc1ccc(F)cc1C(C)(C)CC(O)(Cc1ccccc1C)C(F)(F)F (stereo not given),–,–,–,–
> 2000 nM,400 nM,81 nM,COc1ccc(F)cc1C(C)(C)CC(O)(Cc1cccc(C#N)c1)C(F)(F)F (stereo not given),–,–,–,–
> 2000 nM,715 nM,101 nM,COc1ccc(F)cc1C(C)(C)CC(O)(Cc1ccccc1Cl)C(F)(F)F (stereo not given),–,–,–,–
1300 nM,900 nM,76 nM,COc1ccc(F)cc1C(C)(C)CC(O)(Cc1cccc(Cl)c1Cl)C(F)(F)F (stereo not given),–,–,–,–
> 2000 nM,> 2000 nM,945 nM,COc1ccc(F)cc1C(C)(C)CC(O)(Cc1ccc(C)cc1)C(F)(F)F (stereo not given),–,–,–,–
> 2000 nM,1100 nM,580 nM,COc1ccc(F)cc1C(C)(C)CC(O)(Cc1c(Cl)cccc1Cl)C(F)(F)F (stereo not given),–,–,–,–
> 2000 nM,> 2000 nM,550 nM,COc1ccc(F)cc1C(C)(C)CC(O)(Cc1cccc(Cl)c1)C(F)(F)F (stereo not given),–,–,–,–
> 1300 nM,> 1300 nM,> 1300 nM,COc1ccc(F)cc1C(C)(C)CC(O)(CCc1ccccc1)C(F)(F)F (stereo not given),–,–,–,–
1200 nM,1050 nM,58 nM,COc1ccc(F)cc1C(C)(C)CC(O)(Cc1ccc(C)c2ccccc12)C(F)(F)F (stereo not given),9%,–,> 2000 nM,–
> 1300 nM,> 1300 nM,610 nM,COc1ccc(F)cc1C(C)(C)CC(O)(Cc1ccccc1)C(F)(F)F (stereo not given),–,–,–,–
> 740 nM,> 740 nM,1130 nM,COc1ccc(F)cc1C(C)(C)CC(O)(CCCc1ccccc1)C(F)(F)F (stereo not given),–,–,–,–
> 2000 nM,450 nM,64 nM,COc1ccc(F)cc1C(C)(C)CC(O)(Cc1c(C)ccc2ccccc12)C(F)(F)F (stereo not given),–,–,–,–
> 512 nM,> 512 nM,205 nM,COc1ccc(F)cc1C(C)(C)CC(O)(Cc1ccccc1Br)C(F)(F)F (stereo not given),–,–,–,–
> 2000 nM,1800 nM,340 nM,COc1ccc(F)cc1C(C)(C)CC(O)(Cc1ccc(Cl)cc1)C(F)(F)F (stereo not given),–,–,–,–
> 1050 nM,> 1050 nM,580 nM,COc1ccc(F)cc1C(C)(C)CC(O)(Cc1cccc(C)c1)C(F)(F)F (stereo not given),–,–,–,–

# More lines, now with the values behind:
Compound,IC50 (Progesterone receptor),IC50 [1],IC50 (Glucocorticoid receptor),Efficacy (HFF [2]),Activity (HFF [3]),EC50 (HFF [4]),EC50 (HFF [5])
COc1ccc(F)cc1C(C)(C)CC(O)(Cc1cc(Cl)ccc1Cl)C(F)(F)F (stereo not given),> 2000 nM,535 nM,45 nM,–,–,–,–
COc1ccc(F)cc1C(C)(C)CC(O)(Cc1cc(Cl)cc(Cl)c1)C(F)(F)F (stereo not given),> 2000 nM,760 nM,60 nM,–,–,–,–
COc1ccc(F)cc1C(C)(C)CC(O)(Cc1ccc(C#N)c2ccccc12)C(F)(F)F (stereo not given),325 nM,430 nM,21 nM,92%,103%,70 nM,260 nM
COc1ccc(F)cc1C(C)(C)CC(O)(Cc1ccc(C#N)cc1)C(F)(F)F (stereo not given),345 nM,510 nM,30 nM,0%,0%,> 2000 nM,> 2000 nM
C[C@@H]1C[C@H]2[C@@H]3CCC4=CC(=O)C=C[C@]4(C)[C@@]3(F)[C@@H](O)C[C@]2(C)[C@@]1(O)C(=O)CO [DEXAMETHASONE],–,–,–,–,–,0.5 nM,2 nM
COc1ccc(F)cc1C(C)(C)CC(O)(Cc1ccc(C=O)cc1Cl)C(F)(F)F (stereo not given),1800 nM,345 nM,19 nM,–,–,–,–
COc1ccc(F)cc1C(C)(C)CC(O)(Cc1ccc(C#N)cc1F)C(F)(F)F (stereo not given),280 nM,500 nM,22 nM,40%,15%,> 2000 nM,660 nM
COc1ccc(F)cc1C(C)(C)CC(O)(Cc1cc(C)cc(C)c1)C(F)(F)F (stereo not given),> 354 nM,220 nM,55 nM,55%,80%,280 nM,285 nM
COc1ccc(F)cc1C(C)(C)CC(O)(C(=O)Nc1ccc2c(=O)onc(C)c2c1)C(F)(F)F (stereo not given),–,–,–,20%,0%,> 2000 nM,> 2000 nM
COc1ccc(F)cc1C(C)(C)CC(O)(Cc1cc(Cl)cc(C#N)c1)C(F)(F)F (stereo not given),> 2000 nM,730 nM,27 nM,46%,53%,> 2000 nM,4750 nM
COc1ccc(F)cc1C(C)(C)CC(O)(Cc1ccc(C=O)cc1)C(F)(F)F (stereo not given),> 2000 nM,650 nM,20 nM,–,–,–,–
COc1ccc(F)cc1C(C)(C)CC(O)(Cc1ccc2ccccc2c1)C(F)(F)F (stereo not given),> 2000 nM,> 2000 nM,275 nM,–,–,–,–
COc1ccc(CC(O)(CC(C)(C)c2cc(F)ccc2OC)C(F)(F)F)cc1 (stereo not given),> 1420 nM,> 1420 nM,1250 nM,–,–,–,–
COc1ccc(F)cc1C(C)(C)CC(O)(Cc1cc(C)cc(Cl)c1)C(F)(F)F (stereo not given),> 2000 nM,940 nM,46 nM,79%,80%,125 nM,245 nM
COc1ccc(F)cc1C(C)(C)CC(O)(Cc1ccc(Cl)cc1Cl)C(F)(F)F (stereo not given),665 nM,875 nM,68 nM,–,–,–,–
